In assay [1] the test system is human lung cancer strain LX-1. Put plainly: Antitumor effect in nude mice with subcutaneously transplanted human lung cancer strain LX-1. The format is in vivo, mouse. The settings on record: day 15, LX-1 s.c., i.v. days 1 and 8, ECyd 2 mg/kg, carboplatin 70 mg/kg; for RTV Mean ± SD (Relative Tumor Volume): male nude mice (BALB/cA jcl-nu); for IR (Inhibition Rate of tumor proliferation with respect to control): male nude mice. On the procedure:
A fragment (about 2×2 mm) of human lung cancer strain LX-1 was subcutaneously transplanted in the back of each of male nude mice (BALB/cA jcl-nu). When the average tumor volume (longer diameter (mm)×shorter diameter (mm)×shorter diameter (mm)×½) of these mice reached about 200 mm^3, the mice were divided into groups based on the tumor volume (8 mice in each group) (day 0).
Drug administration was started on the day following transplant (day 1). ECyd and carboplatin were administered to a mouse through the caudal vein at a dose of 2 mg/kg and 70 mg/kg, respectively, on days 1 and 8. Mice of a control group were not subjected to drug treatment.
On day 15, the ratio of tumor volume to that at the grouping (Relative Tumor Volume; RTV) was calculated. In addition, percent inhibition of tumor proliferation of a group with respect to the control group (Inhibition Rate (%); IR (%)) was calculated by equation 2.
From the tumor volume on day 15, enhancement in antitumor effect of the combined administration group with respect to the ECyd-only administration group and the carboplatin-only administration group was analyzed through the Student's t-test (both sides). The antitumor effect of the combined administration group with respect to either single administration group had significance value (p value) of less than 0.05, confirming that administration of ECyd and carboplatin in combination is statistically significant. IR (%)=[1−average tumor volume of treated group/average tumor volume of control group]×100 (Equation 2)

Assay [2] has as its system human head and neck cancer strain OCC-1. Description: Survival of nude rats with subcutaneously transplanted human head and neck cancer strain OCC-1. The format is in vivo, rat. The settings on record: carboplatin 40 mg/kg/day vs cisplatin 5 mg/kg/day as employed in the test. As for the experimental part:
Male nude rats (F344/N Jcl-rnu) were divided in terms of body weight into groups (14 rats in each group). To each rat, a fragment (about 2×2 mm) of human head and neck cancer strain OCC-1 was subcutaneously transplanted into the back (day 0). Drug administration was started on the day following transplant (day 1). ECyd was administered to a rat through the caudal vein at a dose of 0.3 mg/kg on days 1, 3, 5, 8, 10, and 12. Carboplatin was administered to a rat through the caudal vein at a dose of 30 mg/kg or 40 mg/kg on days 1 and 8. Cisplatin was administered to a rat through the caudal vein at a dose of 5 mg/kg on day 1. […] Rats of a control group were not subjected to drug treatment.
Thereafter, the survival (days) of each rat was checked, and the survival rate of each group was calculated by the following equation 1. FIGS. 1 to 3 are graphs showing survival rates; in each graph the horizontal axis represents days and the vertical axis represents survival rate. Survival rate (%)=(no. of surviving rats/no. of rats tested)×100 (Equation 1)

Data on 3 compounds can be found in US8557791B2, “Anti-tumor agent comprising cytidine derivative and carboplatin” (Taiho Pharmaceutical Co., Ltd., priority 2008, dated 2013).

With `C#C[C@@]1(O)[C@@H](CO)O[C@@H](n2ccc(N)nc2=O)[C@@H]1O` [ECyd, 1-(3-C-Ethynyl-β-D-ribopentofuranosyl)cytosine], in assay [1], the “RTV Mean ± SD (Relative Tumor Volume)” value is recorded as 5.43 ± 1.51 and the “IR (Inhibition Rate of tumor proliferation with respect to control)” value was found to be 43.8%.

As for `N.N.O=C([O-])C1(C(=O)[O-])CCC1.[Pt+2]` [carboplatin, cis-diammine(1,1-cyclobutanedicarboxylato)platinum(II)], the “antitumor effect of the platinum agents compared with each other” value in assay [2] is given as “almost the same antitumor effect”. In assay [1], the “RTV Mean ± SD (Relative Tumor Volume)” value was 5.53 ± 1.75 and the “IR (Inhibition Rate of tumor proliferation with respect to control)” value is recorded as 42.8%.

For `N.N.[Cl][Pt][Cl]` [cisplatin], the “antitumor effect of the platinum agents compared with each other” value in assay [2] is “almost the same antitumor effect”.
